Source: US9404927B2, “Systems and methods for diagnosing and treating cancer” (The Translational Genomics Research Institute, priority 2013, dated 2016)

How the values were obtained:
[1] = tested on: HGF-induced Fn14 expression in H2073 cells; experiment: Immunoblot of HGF-induced Fn14 expression in serum starved H2073 cells; type: cell-based, human; details: for HGF-induced Fn14 expression: inhibitor 10 μM pre-treated 30 minutes, then HGF (20 ng) three hours
Method: FIGS. 5A and 5B illustrate that inhibition of MEK or ERK abrogates HGF-induced expression of Fn14. (FIG. 5A) Serum starved H2073 cells pre-treated with either vehicle, U0126, or LY294002 for 30 minutes were exposed to HGF (20 ng) for three hours. Cells were harvested, total cell lysates were prepared and immunoblotted with antibodies to Fn14. Tubulin was used as a loading control. (FIG. 5B) H1993 cells were treated with either vehicle or U0126 for three hours Immunoblots for phosphorylated ERK1/2 (pERK1/2) and Fn14 were performed with tubulin used as a loading control.
Human NSCLC cell lines H2073 and H1993 (American Type Culture Collection, Manassas, Va.) and mouse cell lines CMT64 and CMT167 (Sigma-Aldrich, St. Louis, Mo.) were maintained in RPMI 1640 (Invitrogen, Carlsbad, Calif.) and DMEM (Invitrogen), respectively, supplemented with 10% heat-inactivated fetal bovine serum (FBS) in a 37° C., 5% CO2 atmosphere. For the HGF stimulation, cells were placed in RPMI 1640 without FBS for 18 hours prior to growth factor exposure.
HGF was purchased from Millipore (Billerica, Mass.). SU11274 and U0126 were purchased from Selleck Chemicals (Houston, Tex.). LY294002 was purchased from Tocris Biosciences (R&D Systems, Minneapolis, Minn.). The final concentrations of inhibitors were SU11274 (2 μM), U0126 (10 μM), and LY294002 (10 μM). Antibodies for immunblot analysis against Fn14, c-Met, and phosphorylated c-Met were purchased from Cell Signaling Technology (Danvers, Mass.), while alpha-tubulin was purchased from Millipore. Immunoblot analysis was performed as previously described (Whitsett T G, et al. (2012) Elevated expression of Fn14 in non-small cell lung cancer correlates with activated EGFR and promotes tumor cell migration and invasion. Am J Pathol 181 1): 111-20).

[2] = tested on: Fn14 protein expression in H1993 cells; experiment: Immunoblot of Fn14 in H1993 cells treated with inhibitors; type: cell-based, human; details: immunoblot vs vehicle
Method: FIGS. 4A-4C illustrate that c-Met amplification enhances Fn14 expression levels in NSCLC cell lines. (FIG. 4A) Total cell lysates were prepared from CMT64 and CMT167 cell lines and immunoblotted with the indicated antibodies. Tubulin was used as a loading control. (FIG. 4B) Total cell lysates were prepared from H2073 (primary adenocarcinoma NSCLC cell line) and H1993 (patient-matched metastatic cell line with known c-Met amplification) and immunoblotted with the indicated antibodies. Tubulin was used as a loading control. (FIG. 4C) H1993 cells were treated with vehicle or SU11274 for 24 hr. Cells were harvested, total cell lysates were prepared and immunoblotted with an antibody against Fn14. Tubulin was used as a loading control. FIGS. 5A and 5B illustrate that inhibition of MEK or ERK abrogates HGF-induced expression of Fn14. […] Cells were harvested, total cell lysates were prepared and immunoblotted with antibodies to Fn14. Tubulin was used as a loading control. […] Human NSCLC cell lines H2073 and H1993 (American Type Culture Collection, Manassas, Va.) and mouse cell lines CMT64 and CMT167 (Sigma-Aldrich, St. Louis, Mo.) were maintained in RPMI 1640 (Invitrogen, Carlsbad, Calif.) and DMEM (Invitrogen), respectively, supplemented with 10% heat-inactivated fetal bovine serum (FBS) in a 37° C., 5% CO2 atmosphere. […]

For `O=c1cc(N2CCOCC2)oc2c(-c3ccccc3)cccc12` [LY294002], the “HGF-induced Fn14 expression” value [1] was “no effect”.
`Cc1[nH]c(/C=C2\C(=O)Nc3ccc(S(=O)(=O)N(C)c4cccc(Cl)c4)cc32)c(C)c1C(=O)N1CCN(C)CC1` [SU11274] was tested, and the Fn14 protein expression ([2]; SU11274 2 μM, 24 hr) was “inhibition of the Fn14 protein expression”.
`N#CC(=C(/N)Sc1ccccc1N)/C(C#N)=C(\N)Sc1ccccc1N` [U0126] was tested, and the Fn14 protein expression ([2]; U0126 10 μM, three hours) was “significantly decreased” and the “HGF-induced Fn14 expression” value [1] was “completely abrogated”.
“HGF: hepatocyte growth factor, cognate ligand of c-Met, purchased from Millipore” was tested, and the “protein expression of Fn14 on exposure to HGF” value ([1]; HGF (20 ng), three hours) was “enhanced”.
